Laboratory results: patent publication US20180064829A1, “FLUORESCENT BISPHOSPHONATE ANALOGS” (University of Southern California, priority 2015, published 2018)
Like-named read-outs stand apart in the source and are kept apart here.

Tests used:
[1] = parent compounds, ref. [23]; cited from earlier work
[2] = test system: unprenylated Rap1A (uRap1A); details: PC analogues versus N-BPs; cited from earlier work
[3] = assumed the same as the corresponding fluorescent dye, cited from earlier work
[4] = test system: unprenylated Rap1A (uRap1A); experiment: Prenylation assay: Western blot for unprenylated Rap1A in J774.2 macrophages; type: cell-based, mouse; details: 10 or 100 μM, 24 h, FIG. 5A-C
Description: To determine the effect of fluorescent BP probes on protein prenylation, J774.2 mouse macrophages were plated out at 2×10^5 cells/mL in 24-well plates and left to adhere overnight. Cells were then treated with 10 or 100 μM of fluorescent analogues of RIS, dRIS, and ZOL, the respective native BP, or vehicle, for 24 h. Cells were lysed in radioimmunoprecipitation buffer, and proteins were separated by sodium dodecyl sulfate polyacrylamide gel electrophoresis and transferred to polyvinyl difluoride membranes by western blotting. Membranes were then incubated with antibodies to the unprenylated form of Rap1A (uRap1A) and the housekeeping protein β-actin, which were detected by incubation with fluorescently-labeled secondary antibodies and scanning of membranes on a LI-COR Infrared Imager. Results shown are representative of 2 independent experiments. The ratio between abundance of unprenylated RaplA and β-actin is indicated for each sample below the blots in FIG. 5.

[5] = UV-VIS absorption and fluorescence emission spectra; type: physicochemical; details: 0.1M phosphate buffer (1x PBS for 7d5); ± 1 nm error
Description: All labeled samples were dissolved in water and diluted with 0.1 M phosphate buffer or 1×PBS (for 7d5). Assuming that the labeled bisphosphonates have the same extinction coefficient (E) as the carboxylic acid of the free fluorescent label, the final concentrations for all labeled products were calculated from UV-VIS absorption spectra at λ=493 nm (ε=73000 M^−1 cm^−1 at pH 7.2) for FAM conjugates (7a1-7a3, 7b1, 7c1, 7d1-7d2, 7e1-7e2, 7f1-7f2), λ=567.5 nm (ε=114850 M^−1cm^−1 at pH 7.5) for RhR-X conjugates (7a4, 7b2, 7c2), λ=580 nm (c=72000 M^−1cm^−1 at pH 8.0) for ROX conjugates (7a5, 7b3), λ=648 nm (ε=240000 M^−1cm^−1 at pH 7.2) for AF647 conjugates (7a6, 7b4, 7d3), λ=774 nm (ε=240000 M^−1cm^−1 at pH 7.4) for 800CW conjugates (7d4), λ=644 nm (ε=271000 M^−1cm^−1 at pH 7.4, 1×PBS) for Sulfo-Cy5 conjugates (7d5).
Emission spectra for FAM and RhR-X conjugates were recorded using an excitation wavelength of 490 nm or 520 nm, respectively. Emission spectra for AF647 conjugates and Sulfo-Cy5 conjugates were recorded using an excitation wavelength of 600 nm. Emission spectra of 5(6)-ROX conjugates were recorded using an excitation wavelength of 575 nm. Emission spectra of IRDye CW800 conjugate was recorded using an excitation wavelength of 750 nm. The set-up of excitation slit, emission slit, integration time and increment were determined to get optimal spectra for each compound respectively, depending on the sample concentration and spectrometer used.

[6] = pKa and protonation status of the heterocyclic nitrogen; type: physicochemical; details: pH 6.0; calculated by Henderson-Hasselbalch equation
Description: The nucleophilicity and Lewis basicity of the nitrogen atom of the three heterocyclic N-BPs studied in this report vary, and these properties appear to be the major determinants of their conjugation reactivity. Thus, the ‘magic linker’ methodology for RIS required modification for ZOL (1d), MIN (1e), and their related analogues (1f). […] The protonation status of the heteroatom at different pH is also critical to the reactivity. […] Under such conditions, more than 50% (˜71.3% calculated) of the nitrogen of RIS will be deprotonated, and able to attack the epoxide ring nucleophilically. However, at pH 6.0, only 18% of the nitrogen of ZOL (22% for MIN) is deprotonated, thus the reactions were very slow (2d) at pH 6.0. At pH 7.0-7.5, reaction was more rapid, but the regioselectivity (N-alkylation vs. O-alkylation) for 1d, 1e, 1f was not as good as for RIS and its analogues (1a, 1b, 1c); 10-20% of side products could be observed, which were confirmed by HPLC, NMR and MS to be the products of N,O(P)-dialkylation (O-alkylation occurs between the phosphonate/carboxylate group of the drug and the epoxide). The reaction rate of MinPC (1f)-epoxide (5) coupling was even slower than ZOL under the same reaction conditions (same reactant ratio, pH 7.5, 40-45° C.), which might be due to a steric effect from the large heterocycle. In addition, the percent of side products was higher and O-alkylation products were also observed in the reaction mixture.
The following publications are incorporated by reference herein in their entirety: • [1] a) R. G. G. Russell, N. B. Watts, F. H. Ebetino, M. J. Rogers, Osteoporos. Int. 2008, 19, 733-759; b) F. Ebetino, A. Hogan, S. Sun, M. Tsoumpra, X. Duan, J. Triffitt, A. Kwaasi, J. Dunford, B. Barnett, U. Oppermann, M. Lundy, A. Boyde, B. Kashemirov, C. McKenna, R. Russell, Bone 2011, 49 20-33. • [2] a) I. Reid, M. Bolland, A. Grey, Bone 2007, 41, 318-320; b) A. Siddiqi, A. Payne, S. Zafar, Oral Surg. Oral Med. Oral Pathol. Oral Radiol. Endod. […]

[7] = Hydroxyapatite (HAP) column chromatography binding assay; details: pH 6.8, phosphate gradient 1 to 1000 mM; FIG. 3
Description: The fast performance liquid chromatography (FPLC) system consisted of a Waters 650E advanced protein purification system (Millipore Corp., Waters chromatography division, Milford, Mass.), a 600E system controller and a 484 tunable absorbance detector for UV absorbance assessment. Ceramic hydroxyapatite [HAP, […], Macro-Prep® Ceramic Hydroxyapatite Type II 20 μm 100 g, Bio-Rad Laboratories, Inc. Hercules, Calif.] was equilibrated with 1 mM phosphate buffer (pH 6.8) and packed in a 0.66 cm (diameter)×6.5 cm (length) glass column (Omnifit, Bio-chem Valve™ inc., Cambridge, U.K.), which was attached to the Waters 650E advanced protein purification system. Each sample was prepared in 1 mM potassium phosphate buffer, and 100 μL of 1 mM (0.1 μmol) sample was injected into the FPLC system. As a consequence, the compounds were absorbed and subsequently eluted at a flow rate of 2 ml/min by using a linear concentration gradient of phosphate from 1 to 1000 mM at pH 6.8. Fractions of each sample were collected in 80 tubes using an automated fraction collector (Gilson, France) and then used for subsequent ultraviolet (SPECTRAmax PLUS 384, Molecular Devices, CA) or fluorescence spectrometry detection (WALLAC VICTOR™, 1420 MULTILABEL COUNTER, Perkin Elmer, USA). […] The elution profile for each sample was determined in triplicate for statistical analysis (Prism, GraphPad Software, USA). […]

## O=P(O)(O)C(Cc1cccnc1)P(=O)(O)O [dRIS, (2-pyridin-3-ylethane-1,1-diyl)bis(phosphonic acid)]
[1]
  rank order of mineral binding affinity: RIS>dRIS>RISPC

## O=C(O)C(O)(Cc1cnc2ccccn12)P(=O)(O)O (stereo not drawn) [MINPC, 2-hydroxy-3-imidazo[1,2-a]pyridin-3-yl-2-phosphonopropionic acid]
[2]
  activity in uRap1A and J774.2 cell viability screening assays: much less active than the N-BPs

## O=C(O)C(O)(Cc1cccnc1)P(=O)(O)O (stereo not drawn) [RISPC, 2-hydroxy-2-phosphono-3-pyridin-3-ylpropanoic acid]
[2]
  activity in uRap1A and J774.2 cell viability screening assays: much less active than the N-BPs
[1]
  rank order of mineral binding affinity: RIS>dRIS>RISPC

## 16-[2-carboxy-4-({2-hydroxy-3-[4-(2-hydroxy-2,2-diphosphonoethyl)pyridin-1-ium-1-yl]propyl}carbamoyl)phenyl]-3-oxa-9λ^5,23-diazaheptacyclo[17.7.1.1^5,9.0^2,17.0^4,15.0^23,27.0^13,28]octacosa-1(27),2(17),4,9(28), 13,15,18-heptaen-9-ylium [5(6)-ROX-RIS]
[3]; pH 8.0, 0.1M phosphate buffer
  Extinction coefficient: 72,000 (pH 8.0) M^−1cm^−1
[4]
  accumulation of unprenylated Rap1A (anti-prenylation activity): shows activity
[5]
  Maximum absorption wavelength (λmax (abs), nm): 580 nm
  Maximum emission wavelength (λmax (em), nm): 606 nm

## O=P(O)(O)C(O)(Cn1ccnc1)P(=O)(O)O [ZOL, [1-hydroxy-2-(1H-imidazol-1-yl)ethane-1,1-diyl]bis(phosphonic acid)]
[6]
  fraction of the heterocyclic nitrogen deprotonated: 18%

## O=P(O)(O)C(O)(Cc1cnc2ccccn12)P(=O)(O)O [MIN, (1-Hydroxy-2-imidazo[1,2-a]pyridin-3-yl-1-phosphonoethyl)phosphonic acid]
[6]
  fraction of the heterocyclic nitrogen deprotonated: 22%

## O=C(NCC(O)C[n+]1ccn(CC(O)(P(=O)(O)O)P(=O)(O)O)c1)c1ccc(C(=O)O)c(-c2c3ccc(=O)cc-3oc3cc(O)ccc23)c1 (stereo not drawn) [Compound 6-FAM-ZOL, 3-(3-(4-carboxy-3-(6-hydroxy-3-oxo-3H-xanthen-9-yl)benzamido)-2-hydroxypropyl)-1-(2-hydroxy-2,2-diphosphonoethyl)-1H-imidazol-3-ium]
[3]; pH 7.2, 0.1M phosphate buffer
  Extinction coefficient: 73,000 (pH 7.2) M^−1cm^−1
[7]
  HAP binding affinity (retention time on HAP column, normalized to RIS): slightly longer retention time on the HAP column than its 5-isomer
[4]
  accumulation of unprenylated Rap1A (anti-prenylation activity): retain some activity, although their potencies are weaker than native ZOL
[5]
  Maximum absorption wavelength (λmax (abs), nm): 493 nm
  Maximum emission wavelength (λmax (em), nm): 516 nm
